Experimental data published in ChEMBL document CHEMBL4715760, “Balancing potency, metabolic stability and permeability in pyrrolopyrimidine-based EGFR inhibitors” (Eur J Med Chem, 2016).

Experiments:
[1] = biological target: T1, Ephrin type-A receptor 1 (Homo sapiens) (UniProt P21709); assay: Inhibition of recombinant human GST-tagged EPHA1 (568 to 976 residues) expressed in baculovirus expression system at 500 nM using Tyr 02 peptide as substrate incubated for 1 hr in presence of ATP at its Km concentration by Z'-LYTE assay relative to control
T1 sequence (whole entry): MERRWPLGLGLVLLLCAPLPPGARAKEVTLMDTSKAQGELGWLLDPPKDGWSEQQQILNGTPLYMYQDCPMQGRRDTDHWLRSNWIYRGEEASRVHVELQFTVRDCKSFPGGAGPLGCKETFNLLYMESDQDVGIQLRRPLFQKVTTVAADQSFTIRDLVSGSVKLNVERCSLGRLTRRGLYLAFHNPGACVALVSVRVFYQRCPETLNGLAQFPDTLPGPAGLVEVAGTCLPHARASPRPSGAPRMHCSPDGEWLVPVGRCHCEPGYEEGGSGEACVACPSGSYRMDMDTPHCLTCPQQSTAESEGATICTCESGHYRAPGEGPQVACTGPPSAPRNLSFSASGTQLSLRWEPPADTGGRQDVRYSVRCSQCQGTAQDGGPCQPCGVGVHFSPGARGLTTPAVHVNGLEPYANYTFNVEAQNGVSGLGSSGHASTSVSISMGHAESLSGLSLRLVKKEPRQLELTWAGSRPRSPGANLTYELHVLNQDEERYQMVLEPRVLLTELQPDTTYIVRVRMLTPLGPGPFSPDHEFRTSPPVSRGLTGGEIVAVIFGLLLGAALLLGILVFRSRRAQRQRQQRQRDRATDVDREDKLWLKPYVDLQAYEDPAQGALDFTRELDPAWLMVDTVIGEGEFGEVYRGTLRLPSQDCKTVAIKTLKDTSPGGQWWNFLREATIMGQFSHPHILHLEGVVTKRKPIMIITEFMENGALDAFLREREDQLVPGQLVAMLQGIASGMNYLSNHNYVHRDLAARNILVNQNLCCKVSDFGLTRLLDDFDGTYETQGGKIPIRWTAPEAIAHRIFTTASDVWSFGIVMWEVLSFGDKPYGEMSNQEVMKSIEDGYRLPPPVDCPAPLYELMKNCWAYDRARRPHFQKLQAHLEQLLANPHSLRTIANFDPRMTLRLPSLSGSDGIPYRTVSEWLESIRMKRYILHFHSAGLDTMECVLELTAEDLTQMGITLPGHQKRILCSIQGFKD

[2] = biological target: Macrophage colony-stimulating factor 1 receptor (Homo sapiens) (UniProt P07333); assay: Inhibition of recombinant human His-tagged CSF1R (538 to 910 residues) expressed in baculovirus expression system at 500 nM using Tyr 01 peptide as substrate incubated for 1 hr in presence of ATP at its Km concentration by Z'-LYTE assay relative to control
[3] = biological target: Focal adhesion kinase 1 (Homo sapiens) (UniProt Q05397); assay: Inhibition of recombinant full length human GST-tagged PTK2 expressed in baculovirus expression system at 500 nM using Tyr 07 as substrate incubated for 1 hr in presence of ATP at its Km concentration by Z'-LYTE assay relative to control
[4] = biological target: Tyrosine-protein kinase Lck (Homo sapiens) (UniProt P06239); conditions: dose 500.0 nM, time 1.0 hrs
[5] = biological target: Proto-oncogene tyrosine-protein kinase Src (Homo sapiens) (UniProt P12931); assay: Inhibition of recombinant human His-tagged full length SRC expressed in baculovirus expression system at 500 nM using Tyr 02 as substrate incubated for 1 hr in presence of ATP at its Km concentration by Z'-LYTE assay relative to control
[6] = biological target: Mitogen-activated protein kinase 14 (Homo sapiens) (UniProt Q16539); assay: Inhibition of recombinant human GST-tagged full length MAPK14 expressed in Escherichia coli expression system at 500 nM using Ser/Thr 04 as substrate incubated for 1 hr in presence of ATP at its Km concentration by Z'-LYTE assay relative to control
[7] = biological target: Epidermal growth factor receptor (Homo sapiens, UniProt P00533); conditions: dose 100.0 nM
Description: Inhibition of human EGFR at 100 nM using poly[Glu:Tyr] (4:1) as substrate in presence of [gamma33P]ATP by radiometric HotSpot assay relative to control

[8] = biological target: Serine/threonine-protein kinase pim-2 (Homo sapiens) (UniProt Q9P1W9); assay: Inhibition of recombinant full length GST-tagged human PIM2 expressed in baculovirus expression system at 500 nM using Ser/Thr 07 as substrate incubated for 1 hr in presence of ATP at its Km concentration by Z'-LYTE assay relative to control
[9] = biological target: Tyrosine-protein kinase ABL1 (Homo sapiens) (UniProt P00519); assay: Inhibition of recombinant full length human His-tagged ABL1 cytoplasmic domain expressed in baculovirus expression system at 500 nM using Tyr 02 peptide as substrate incubated for 1 hr in presence of ATP at its Km concentration by Z'-LYTE assay relative to control
[10] = biological target: Vascular endothelial growth factor receptor 2 (Homo sapiens) (UniProt P35968); assay: Inhibition of recombinant human His-tagged KDR (789 to 1356 residues) expressed in baculovirus expression system at 500 nM using Tyr 01 as substrate incubated for 1 hr in presence of ATP at its Km concentration by Z'-LYTE assay relative to control
[11] = biological target: Proto-oncogene tyrosine-protein kinase receptor Ret (Homo sapiens) (UniProt P07949); assay: Inhibition of recombinant human GST-tagged RET (658 to 1114 residues) expressed in baculovirus expression system at 500 nM using Tyr 02 as substrate incubated for 1 hr in presence of ATP at its Km concentration by Z'-LYTE assay relative to control
[12] = biological target: T2, Serine/threonine-protein kinase Chk1 (Homo sapiens) (UniProt O14757); assay: Inhibition of recombinant human full-length His-tagged CHEK1 expressed in baculovirus expression system at 500 nM using Ser/Thr 19 peptide as substrate incubated for 1 hr in presence of ATP at its Km concentration by Z'-LYTE assay relative to control
T2 sequence (whole entry): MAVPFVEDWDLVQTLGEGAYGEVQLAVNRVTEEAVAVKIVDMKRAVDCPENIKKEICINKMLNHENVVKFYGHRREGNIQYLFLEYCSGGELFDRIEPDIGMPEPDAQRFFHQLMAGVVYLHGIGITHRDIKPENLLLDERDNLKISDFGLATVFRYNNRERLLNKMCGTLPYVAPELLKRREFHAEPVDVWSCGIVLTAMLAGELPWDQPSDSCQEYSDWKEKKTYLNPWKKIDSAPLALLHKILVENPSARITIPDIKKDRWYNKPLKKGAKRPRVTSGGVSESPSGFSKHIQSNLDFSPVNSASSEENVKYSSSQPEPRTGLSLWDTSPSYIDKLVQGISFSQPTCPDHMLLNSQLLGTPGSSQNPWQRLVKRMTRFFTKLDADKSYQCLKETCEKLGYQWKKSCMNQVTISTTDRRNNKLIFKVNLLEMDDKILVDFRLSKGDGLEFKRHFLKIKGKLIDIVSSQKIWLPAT

Proto-oncogene tyrosine-protein kinase Src (Homo sapiens), sequence (P12931 2-536 limits assumed): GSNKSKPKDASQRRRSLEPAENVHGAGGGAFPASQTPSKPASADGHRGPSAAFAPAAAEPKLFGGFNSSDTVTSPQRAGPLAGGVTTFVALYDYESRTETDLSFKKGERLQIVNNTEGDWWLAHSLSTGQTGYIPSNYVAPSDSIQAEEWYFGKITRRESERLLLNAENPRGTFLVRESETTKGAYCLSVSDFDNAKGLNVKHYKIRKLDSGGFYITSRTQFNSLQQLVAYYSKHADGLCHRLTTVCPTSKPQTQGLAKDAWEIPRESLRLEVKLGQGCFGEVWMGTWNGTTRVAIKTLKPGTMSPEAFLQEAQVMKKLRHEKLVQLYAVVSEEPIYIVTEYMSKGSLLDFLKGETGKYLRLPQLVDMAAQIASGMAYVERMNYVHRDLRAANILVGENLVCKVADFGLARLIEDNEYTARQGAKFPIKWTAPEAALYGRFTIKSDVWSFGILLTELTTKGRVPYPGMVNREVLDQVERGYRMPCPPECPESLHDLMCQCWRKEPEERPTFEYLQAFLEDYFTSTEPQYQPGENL
Mitogen-activated protein kinase 14 (Homo sapiens), sequence (Q16539 whole entry): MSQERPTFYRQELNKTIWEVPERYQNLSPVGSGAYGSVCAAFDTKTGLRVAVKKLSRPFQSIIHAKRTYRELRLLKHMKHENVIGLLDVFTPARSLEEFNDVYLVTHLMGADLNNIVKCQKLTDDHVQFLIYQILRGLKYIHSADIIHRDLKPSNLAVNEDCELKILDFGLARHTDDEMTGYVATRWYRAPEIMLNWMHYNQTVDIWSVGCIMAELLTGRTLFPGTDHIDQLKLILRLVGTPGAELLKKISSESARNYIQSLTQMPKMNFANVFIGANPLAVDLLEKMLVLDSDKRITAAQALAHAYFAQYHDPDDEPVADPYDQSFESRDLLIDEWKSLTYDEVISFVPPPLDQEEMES
Vascular endothelial growth factor receptor 2 (Homo sapiens), sequence (P35968 whole entry, the tested form may be a part): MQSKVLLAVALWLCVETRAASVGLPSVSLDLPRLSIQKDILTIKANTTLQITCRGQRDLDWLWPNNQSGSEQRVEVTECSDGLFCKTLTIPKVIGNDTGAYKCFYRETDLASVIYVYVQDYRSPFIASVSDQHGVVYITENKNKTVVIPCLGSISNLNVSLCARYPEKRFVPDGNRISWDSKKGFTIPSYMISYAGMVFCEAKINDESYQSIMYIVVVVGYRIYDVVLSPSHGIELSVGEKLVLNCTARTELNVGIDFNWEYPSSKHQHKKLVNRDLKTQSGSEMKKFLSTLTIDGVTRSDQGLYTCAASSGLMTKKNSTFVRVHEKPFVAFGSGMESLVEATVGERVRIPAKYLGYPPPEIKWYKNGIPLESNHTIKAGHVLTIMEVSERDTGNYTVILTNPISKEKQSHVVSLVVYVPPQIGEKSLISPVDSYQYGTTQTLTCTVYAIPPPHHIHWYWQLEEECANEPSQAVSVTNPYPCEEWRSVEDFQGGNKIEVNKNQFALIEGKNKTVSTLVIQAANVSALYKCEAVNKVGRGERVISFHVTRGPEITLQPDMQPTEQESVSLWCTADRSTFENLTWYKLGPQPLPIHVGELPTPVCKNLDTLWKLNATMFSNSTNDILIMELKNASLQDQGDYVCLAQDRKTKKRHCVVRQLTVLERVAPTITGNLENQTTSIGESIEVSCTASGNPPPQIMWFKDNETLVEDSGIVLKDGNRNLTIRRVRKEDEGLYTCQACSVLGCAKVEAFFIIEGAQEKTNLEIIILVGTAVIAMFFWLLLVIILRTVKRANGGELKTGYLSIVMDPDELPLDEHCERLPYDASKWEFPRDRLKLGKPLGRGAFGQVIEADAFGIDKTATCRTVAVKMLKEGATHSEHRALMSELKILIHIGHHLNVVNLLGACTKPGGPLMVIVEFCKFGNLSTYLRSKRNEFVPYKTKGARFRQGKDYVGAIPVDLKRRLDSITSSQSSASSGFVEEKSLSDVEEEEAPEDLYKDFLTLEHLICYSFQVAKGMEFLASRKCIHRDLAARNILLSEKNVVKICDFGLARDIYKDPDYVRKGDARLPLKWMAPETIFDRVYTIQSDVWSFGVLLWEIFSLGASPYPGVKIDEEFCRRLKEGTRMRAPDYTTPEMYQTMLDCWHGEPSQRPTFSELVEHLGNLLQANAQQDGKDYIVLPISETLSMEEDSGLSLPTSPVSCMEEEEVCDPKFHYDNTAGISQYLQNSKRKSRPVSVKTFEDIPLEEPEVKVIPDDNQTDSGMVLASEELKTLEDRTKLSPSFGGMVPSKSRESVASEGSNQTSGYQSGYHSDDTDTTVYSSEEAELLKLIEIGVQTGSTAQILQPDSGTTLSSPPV
Serine/threonine-protein kinase pim-2 (Homo sapiens), sequence (Q9P1W9 whole entry, looked up, the tested form may be a part): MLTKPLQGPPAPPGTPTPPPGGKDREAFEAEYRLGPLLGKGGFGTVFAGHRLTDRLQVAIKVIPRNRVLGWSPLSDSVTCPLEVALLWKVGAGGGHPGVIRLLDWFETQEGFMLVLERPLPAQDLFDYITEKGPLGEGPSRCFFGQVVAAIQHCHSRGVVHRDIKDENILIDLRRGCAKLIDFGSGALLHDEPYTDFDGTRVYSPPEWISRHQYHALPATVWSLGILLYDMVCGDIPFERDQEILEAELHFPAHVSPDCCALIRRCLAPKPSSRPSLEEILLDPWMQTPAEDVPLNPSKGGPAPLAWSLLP
Focal adhesion kinase 1 (Homo sapiens), sequence (Q05397 2-1052 limits assumed): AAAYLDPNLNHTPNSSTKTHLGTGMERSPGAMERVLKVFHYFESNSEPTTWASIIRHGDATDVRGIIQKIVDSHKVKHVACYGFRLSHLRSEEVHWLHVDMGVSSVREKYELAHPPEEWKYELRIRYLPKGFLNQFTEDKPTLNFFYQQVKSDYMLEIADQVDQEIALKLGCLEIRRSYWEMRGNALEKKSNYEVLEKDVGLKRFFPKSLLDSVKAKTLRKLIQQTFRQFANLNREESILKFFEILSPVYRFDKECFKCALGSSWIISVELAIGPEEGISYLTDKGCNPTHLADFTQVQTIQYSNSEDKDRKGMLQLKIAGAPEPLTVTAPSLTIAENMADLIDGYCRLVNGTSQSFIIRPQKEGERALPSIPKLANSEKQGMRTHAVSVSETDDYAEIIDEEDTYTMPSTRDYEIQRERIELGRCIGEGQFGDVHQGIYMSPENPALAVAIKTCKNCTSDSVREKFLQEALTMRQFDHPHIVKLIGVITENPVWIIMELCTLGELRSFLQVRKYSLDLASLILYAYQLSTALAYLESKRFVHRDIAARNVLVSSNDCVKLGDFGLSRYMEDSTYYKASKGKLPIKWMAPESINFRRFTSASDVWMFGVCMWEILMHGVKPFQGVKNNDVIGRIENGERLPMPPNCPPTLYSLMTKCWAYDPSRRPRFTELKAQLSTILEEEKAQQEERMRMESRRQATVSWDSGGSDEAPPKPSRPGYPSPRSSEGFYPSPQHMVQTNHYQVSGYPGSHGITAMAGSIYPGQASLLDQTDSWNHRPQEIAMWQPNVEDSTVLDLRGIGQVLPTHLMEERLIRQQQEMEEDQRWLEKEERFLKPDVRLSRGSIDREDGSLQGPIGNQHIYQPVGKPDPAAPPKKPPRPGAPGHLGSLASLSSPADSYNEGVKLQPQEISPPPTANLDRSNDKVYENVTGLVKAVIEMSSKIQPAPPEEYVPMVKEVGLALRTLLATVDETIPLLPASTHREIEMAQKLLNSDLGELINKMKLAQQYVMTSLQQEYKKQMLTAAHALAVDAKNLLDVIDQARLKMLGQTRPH
Tyrosine-protein kinase ABL1 (Homo sapiens), sequence (P00519 whole entry, the tested form may be a part): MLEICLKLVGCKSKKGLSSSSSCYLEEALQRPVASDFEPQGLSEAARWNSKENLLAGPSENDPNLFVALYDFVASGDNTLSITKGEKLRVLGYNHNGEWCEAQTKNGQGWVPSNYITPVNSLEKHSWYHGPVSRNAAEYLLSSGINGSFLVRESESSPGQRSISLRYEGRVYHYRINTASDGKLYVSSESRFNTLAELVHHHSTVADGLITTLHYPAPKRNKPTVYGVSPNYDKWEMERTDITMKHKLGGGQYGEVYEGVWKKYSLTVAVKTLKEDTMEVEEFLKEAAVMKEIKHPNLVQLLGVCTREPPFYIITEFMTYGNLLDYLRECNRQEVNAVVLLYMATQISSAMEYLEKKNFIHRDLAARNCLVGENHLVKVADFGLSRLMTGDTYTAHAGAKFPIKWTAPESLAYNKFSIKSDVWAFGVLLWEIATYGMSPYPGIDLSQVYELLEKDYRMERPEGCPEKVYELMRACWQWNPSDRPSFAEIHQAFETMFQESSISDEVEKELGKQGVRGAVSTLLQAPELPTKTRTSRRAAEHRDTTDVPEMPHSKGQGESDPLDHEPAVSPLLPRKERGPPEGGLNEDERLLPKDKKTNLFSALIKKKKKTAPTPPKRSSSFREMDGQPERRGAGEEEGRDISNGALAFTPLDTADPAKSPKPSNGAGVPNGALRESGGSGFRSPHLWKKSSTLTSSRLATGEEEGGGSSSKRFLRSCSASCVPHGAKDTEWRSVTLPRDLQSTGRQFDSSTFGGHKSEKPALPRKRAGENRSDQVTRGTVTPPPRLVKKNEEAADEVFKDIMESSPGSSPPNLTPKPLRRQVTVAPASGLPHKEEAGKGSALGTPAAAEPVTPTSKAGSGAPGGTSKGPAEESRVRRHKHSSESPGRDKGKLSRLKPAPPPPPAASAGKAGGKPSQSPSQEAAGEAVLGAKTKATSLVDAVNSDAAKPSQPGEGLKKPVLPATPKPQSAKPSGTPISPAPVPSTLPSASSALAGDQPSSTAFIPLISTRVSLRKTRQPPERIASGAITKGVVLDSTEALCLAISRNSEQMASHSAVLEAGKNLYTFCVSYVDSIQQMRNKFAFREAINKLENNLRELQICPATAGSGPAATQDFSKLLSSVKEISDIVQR

Compound `OCC[C@@H](Nc1ncnc2[nH]c(-c3ccccc3)cc12)c1ccccc1` has an inhibition [1] of 13%, an inhibition [2] of 74% and an inhibition [3] of 7%. For the same compound, the inhibition [4] was 29%, the inhibition [5] was 25% and the inhibition [6] was 14%. The inhibition [7] was 99%, the inhibition [8] was 6% and the inhibition [9] was 38%. It also gave an inhibition [10] of 0% and an inhibition [11] of 2%.

With `CCOc1ccccc1-c1cc2c(N[C@H](CO)c3ccccc3)ncnc2[nH]1` the inhibition [1] was 13%, the inhibition [2] was 82% and the inhibition [3] was 9%. For the same compound, the inhibition [4] was 26%, the inhibition [5] was 40% and the inhibition [6] was 10%. For the same compound, the inhibition [7] was 98%, the inhibition [8] was 2% and the inhibition [9] was 33%. The inhibition [10] was 9% and the inhibition [11] was 9%.

`CN(C)CCNCc1ccc(-c2cc3c(N[C@H](CO)c4ccccc4)ncnc3[nH]2)cc1F` showed an inhibition [1] of 48%, an inhibition [2] of 86% and an inhibition [3] of 1%. For the same compound, the inhibition [4] was 81%, the inhibition [5] was 76% and the inhibition [6] was 20%. For the same compound, the inhibition [7] was 99%, the inhibition [8] was -5% and the inhibition [9] was 87%. The inhibition [10] was 53% and the inhibition [11] was 25%.

With `OC[C@@H](Nc1ncnc2[nH]c(-c3ccccc3)cc12)c1ccccc1` the inhibition [1] was 19%, the inhibition [2] was 88% and the inhibition [12] was 10%. For the same compound, the inhibition [4] was 13%, the inhibition [5] was 59% and the inhibition [6] was 19%. For the same compound, the inhibition [8] was 9%, the inhibition [9] was 65% and the inhibition [10] was 28%. For the same compound, the inhibition [11] was 14%.

In the case of `C#Cc1cccc(Nc2ncnc3cc(OCCOC)c(OCCOC)cc23)c1` [ERLOTINIB], the inhibition [3] was -3% and the inhibition [12] was -7%.

Work on `COc1ccccc1-c1cc2c(N[C@H](CO)c3ccccc3)ncnc2[nH]1` yielded an inhibition [1] of 15%, an inhibition [2] of 79% and an inhibition [3] of -2%. For the same compound, the inhibition [12] was 3%, the inhibition [4] was 17% and the inhibition [5] was 59%. It also gave an inhibition [6] of 24%, an inhibition ([7]; tested as the 2H-labelled form) of 99% and an inhibition [8] of 5%. It also gave an inhibition [9] of 50%, an inhibition [10] of 15% and an inhibition [11] of 15%.
